In ChEMBL document CHEMBL1148281, “Carbonic anhydrase inhibitors: synthesis and topical intraocular pressure lowering effects of fluorine-containing inhibitors devoid of enhanced reactivity” (J Med Chem, 2004) one finds Ki and Reactivity data, which are given here for 33 compounds.

For one assay, the target named is Carbonic anhydrase 2 (Homo sapiens, UniProt P00918).
For another assay, the target named is T1, Carbonic anhydrase 4 (Bos taurus, UniProt Q95323).
T1 sequence (Q95323 whole entry): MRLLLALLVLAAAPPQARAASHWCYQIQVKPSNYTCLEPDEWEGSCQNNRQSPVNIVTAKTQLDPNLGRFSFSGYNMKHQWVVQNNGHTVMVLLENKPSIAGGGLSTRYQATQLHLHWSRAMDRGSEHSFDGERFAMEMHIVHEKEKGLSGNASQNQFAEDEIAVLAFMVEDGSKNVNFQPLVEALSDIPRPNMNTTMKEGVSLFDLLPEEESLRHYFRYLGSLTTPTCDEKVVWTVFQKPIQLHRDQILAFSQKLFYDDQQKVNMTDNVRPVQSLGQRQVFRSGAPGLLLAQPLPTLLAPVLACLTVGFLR

Another assay deals with Carbonic anhydrase 1 (Homo sapiens, UniProt P00915).
Sequence of Carbonic anhydrase 1 (P00915 whole entry): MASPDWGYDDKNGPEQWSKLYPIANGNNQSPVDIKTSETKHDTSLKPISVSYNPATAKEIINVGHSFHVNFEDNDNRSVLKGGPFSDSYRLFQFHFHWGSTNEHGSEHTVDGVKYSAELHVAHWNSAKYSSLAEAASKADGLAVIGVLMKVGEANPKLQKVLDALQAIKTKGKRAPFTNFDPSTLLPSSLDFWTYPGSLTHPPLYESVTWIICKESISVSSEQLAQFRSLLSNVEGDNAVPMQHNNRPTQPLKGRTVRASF
Assay [1] is described as follows: Reactivity against cysteine after 24 hours of incubation. It counts as functional.
The nature of assay [2]: Reactivity against glutathione after 24 hours of incubation. It counts as functional.

pKi: −log10 of the molar value.

Description for Carbonic anhydrase 1: In vitro inhibitory activity against human carbonic anhydrase I (hCAI)
Description for Carbonic anhydrase 2: In vitro inhibitory activity against human carbonic anhydrase II (hCAII)
Description for Carbonic anhydrase 4: In vitro inhibitory activity against bovine carbonic anhydrase IV (CAIV)

The pKi is the Ki on a negative log10 scale, so that one unit is a factor of ten. As for `NS(=O)(=O)c1ccc(Nc2ccnc(NS(=O)(=O)c3c(F)c(F)cc(F)c3F)n2)cc1`, the negative-log Ki (pKi) at Carbonic anhydrase 2 is 7.89; on Carbonic anhydrase 4 it was 7.68; on Carbonic anhydrase 1, 6.49.
Take `NS(=O)(=O)c1ccc(NC(=O)Nc2c(F)c(F)c(F)c(F)c2F)cc1`: the Reactivity in assay [1] and in assay [2] was 0% throughout. Also, the pKi at Carbonic anhydrase 4 was 7.68.
The compound `NS(=O)(=O)c1ccccc1NC(=O)c1c(F)c(F)cc(F)c1F` gave a pKi at Carbonic anhydrase 4 of 6.16.
Turning to `NS(=O)(=O)c1ccc(NS(=O)(=O)c2c(F)c(F)cc(F)c2F)c(Cl)c1`, the pKi on Carbonic anhydrase 2 was 7.21; on Carbonic anhydrase 4, 7.31; on Carbonic anhydrase 1, 6.03.
`NS(=O)(=O)c1ccc(NC(=O)c2c(F)c(F)c(F)c(F)c2F)c(F)c1`: the Reactivity in assay [1] came out at 55%; in assay [2] it was 49%.
`NS(=O)(=O)c1ccc(NC(=O)c2c(F)c(F)cc(F)c2F)cc1` showed a pKi on Carbonic anhydrase 4 of 6.40.
For `NS(=O)(=O)c1ccc(NC(=O)Nc2c(F)c(F)c(F)c(F)c2F)c(F)c1`, the pKi was 7.74 at Carbonic anhydrase 2, 7.20 on Carbonic anhydrase 4 and 6.12 at Carbonic anhydrase 1.
The matching figures for `NS(=O)(=O)c1nnc(NC(=O)Nc2c(F)c(F)c(F)c(F)c2F)s1`: 8.44, 7.35 and 6.57.
The matching figures for `NS(=O)(=O)c1cc(S(N)(=O)=O)c(NC(=O)Nc2c(F)c(F)c(F)c(F)c2F)cc1Cl`: 7.80, 7.24 and 6.13.
The matching figures for `NS(=O)(=O)c1ccc(NS(=O)(=O)c2c(F)c(F)cc(F)c2F)cc1`: 7.60, 6.48 and 5.89.
`NS(=O)(=O)c1nnc(NS(=O)(=O)c2c(F)c(F)c(F)c(F)c2F)s1`: the Reactivity amounted to 76% in assay [1] and 68% in assay [2].
For `Cn1nc(S(N)(=O)=O)s/c1=N/C(=O)c1c(F)c(F)cc(F)c1F`, the pKi on Carbonic anhydrase 2 is 8.85; at Carbonic anhydrase 4 it was 7.55; at Carbonic anhydrase 1, 6.57.
`NS(=O)(=O)c1ccc(NC(=O)c2c(F)c(F)cc(F)c2F)c(F)c1`: the Reactivity in assay [1] and in assay [2] was 0% each time. At Carbonic anhydrase 4, the pKi is 7.51.
With `NS(=O)(=O)c1ccc(NC(=O)Nc2c(F)c(F)c(F)c(F)c2F)c(Cl)c1`, the pKi is 7.10 on Carbonic anhydrase 2, 6.61 on Carbonic anhydrase 4 and 5.89 at Carbonic anhydrase 1.
For the compound `NS(=O)(=O)c1cccc(NC(=O)Nc2c(F)c(F)c(F)c(F)c2F)c1`, the negative logarithm of the Ki (pKi) on Carbonic anhydrase 4 was 6.37.
Take `NS(=O)(=O)c1ccc(NC(=O)Nc2c(F)c(F)c(F)c(F)c2F)c(Br)c1`: the pKi is 7.02 at Carbonic anhydrase 2, 6.44 at Carbonic anhydrase 4 and 5.71 on Carbonic anhydrase 1.
The matching figures for `NS(=O)(=O)c1ccccc1NC(=O)Nc1c(F)c(F)c(F)c(F)c1F`: 7.36, 6.31 and 5.76.
On Carbonic anhydrase 4, `NS(=O)(=O)c1ccc(NC(=O)c2c(F)c(F)cc(F)c2F)c(Cl)c1` gave a pKi of 7.38.
For `NS(=O)(=O)c1nnc(NS(=O)(=O)c2c(F)c(F)cc(F)c2F)s1`, the Reactivity in assay [1] and in assay [2] was 0% each time. For the same compound, the negative-log Ki (pKi) on Carbonic anhydrase 4 was 7.82.
In the case of `NS(=O)(=O)c1ccc(NS(=O)(=O)c2c(F)c(F)cc(F)c2F)c(F)c1`, the pKi is 8.42 at Carbonic anhydrase 2, 7.38 on Carbonic anhydrase 4 and 6.24 at Carbonic anhydrase 1.
Turning to `NS(=O)(=O)c1nnc(NC(=O)c2c(F)c(F)cc(F)c2F)s1`, the pKi at Carbonic anhydrase 4 was 7.62.
Still for that read-out and setting: with `NS(=O)(=O)c1ccc(CNS(=O)(=O)c2ccc(NC(=O)c3c(F)c(F)cc(F)c3F)cc2)cc1` the figure was 7.27; with `NS(=O)(=O)c1ccc(NC(=O)c2c(F)c(F)cc(F)c2F)c(Br)c1`, 7.30.
In turn, `NS(=O)(=O)c1cccc(NC(=O)c2c(F)c(F)cc(F)c2F)c1` had a pKi at Carbonic anhydrase 4 of 6.37.
Same read-out and setting: the result for `NS(=O)(=O)c1ccc(NS(=O)(=O)c2ccc(NC(=O)c3c(F)c(F)cc(F)c3F)cc2)cc1` reads 7.20.
Regarding `NS(=O)(=O)c1ccc(CCNC(=O)Nc2c(F)c(F)c(F)c(F)c2F)cc1`, the pKi was 7.82 on Carbonic anhydrase 2, 7.39 at Carbonic anhydrase 4 and 6.03 at Carbonic anhydrase 1.
Take `NS(=O)(=O)c1ccc(CCNS(=O)(=O)c2ccc(NC(=O)c3c(F)c(F)cc(F)c3F)cc2)cc1`: the negative logarithm of the Ki (pKi) at Carbonic anhydrase 4 was 7.31.
On the same count and under the same terms, with `NS(=O)(=O)c1ccc(CNC(=O)c2c(F)c(F)cc(F)c2F)cc1` the figure was 6.92.
Still for that read-out and setting: with `NS(=O)(=O)c1ccc(CCNC(=O)c2c(F)c(F)cc(F)c2F)cc1` the figure was 7.03.
Take `COc1ccc(NS(=O)(=O)c2c(F)c(F)c(F)c(F)c2F)cc1`: the Reactivity in assay [1] was 98%; in assay [2] it was 96%.
With `NS(=O)(=O)c1ccc(CCNS(=O)(=O)c2c(F)c(F)cc(F)c2F)cc1`, on Carbonic anhydrase 4, the pKi was 7.12.
The same measure, in the same setting: with `NS(=O)(=O)c1ccc(CNS(=O)(=O)c2c(F)c(F)cc(F)c2F)cc1` the figure was 6.87.
As to `NS(=O)(=O)c1ccc(CNC(=O)Nc2c(F)c(F)c(F)c(F)c2F)cc1`, the negative logarithm of the Ki (pKi) at Carbonic anhydrase 2 was 7.82; at Carbonic anhydrase 4, 7.30; at Carbonic anhydrase 1, 6.00.
